Experimental data taken from publication PMC6210068 (ACS Omega, 2018).

Tests used:
mA3AR = target: T1, mA3AR (Mus musculus, UniProt Q61618); experiment: Mouse A3AR binding
T1 sequence (Q61618 1-319): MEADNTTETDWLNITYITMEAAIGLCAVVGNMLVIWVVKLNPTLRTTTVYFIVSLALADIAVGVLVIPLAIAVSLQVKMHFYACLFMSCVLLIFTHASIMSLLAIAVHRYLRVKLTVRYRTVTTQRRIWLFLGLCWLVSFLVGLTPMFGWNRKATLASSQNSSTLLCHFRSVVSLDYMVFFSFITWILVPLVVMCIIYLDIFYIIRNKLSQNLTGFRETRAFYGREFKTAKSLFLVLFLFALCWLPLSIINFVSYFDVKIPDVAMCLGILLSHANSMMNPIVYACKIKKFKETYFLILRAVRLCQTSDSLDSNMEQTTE

hDAT = hDAT (Homo sapiens, UniProt Q01959); experiment: Radioligand binding at DAT; conditions: 10 μM; [3H]WIN35428; negative = enhanced radioligand binding
rat kidney TSPO = rat kidney TSPO (Rattus norvegicus, UniProt P16257); experiment: Radioligand binding at TSPO; conditions: for Ki: TSPO, rat TSPO, [3H]PK11195
DOR [1] = target: T2, DOR (Homo sapiens, UniProt P41143); experiment: Radioligand binding at DOR
hA3AR = target: T3, hA3AR (Homo sapiens, UniProt P0DMS8); experiment: A3AR binding
T3 sequence (P0DMS8 1-318): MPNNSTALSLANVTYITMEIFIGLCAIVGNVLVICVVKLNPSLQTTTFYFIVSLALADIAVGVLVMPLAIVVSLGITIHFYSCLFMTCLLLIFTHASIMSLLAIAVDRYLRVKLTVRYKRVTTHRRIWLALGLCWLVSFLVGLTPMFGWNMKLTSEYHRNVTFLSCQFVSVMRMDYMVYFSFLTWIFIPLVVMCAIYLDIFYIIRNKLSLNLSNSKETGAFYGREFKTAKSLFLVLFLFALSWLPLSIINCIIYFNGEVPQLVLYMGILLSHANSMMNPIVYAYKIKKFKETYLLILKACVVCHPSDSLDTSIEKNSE

hA2AAR = hA2AAR (Homo sapiens, UniProt P29274); experiment: hA2AAR binding; conditions: for inhibition at 10 µM: read-out: binding inhibition at hA2AAR (% at 10 μM)
hA1AR = target: T4, hA1AR (Homo sapiens, UniProt P30542); experiment: hA1AR binding; conditions: read-out: binding inhibition at hA1AR (% at 10 μM)
T4 sequence (P30542 1-326): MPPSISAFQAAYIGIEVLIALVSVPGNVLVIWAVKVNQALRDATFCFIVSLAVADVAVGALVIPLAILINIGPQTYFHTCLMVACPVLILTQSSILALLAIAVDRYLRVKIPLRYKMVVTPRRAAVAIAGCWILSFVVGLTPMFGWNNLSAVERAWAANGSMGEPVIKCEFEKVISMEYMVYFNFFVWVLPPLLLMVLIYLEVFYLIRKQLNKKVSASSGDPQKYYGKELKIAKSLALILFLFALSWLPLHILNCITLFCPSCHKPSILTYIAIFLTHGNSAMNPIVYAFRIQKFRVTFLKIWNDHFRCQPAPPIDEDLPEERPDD

5HT2C serotonin receptor = target: T5, 5HT2C serotonin receptor (Homo sapiens, UniProt P28335); experiment: PDSP off-target binding, 5HT2C
T5 sequence (P28335 33-458): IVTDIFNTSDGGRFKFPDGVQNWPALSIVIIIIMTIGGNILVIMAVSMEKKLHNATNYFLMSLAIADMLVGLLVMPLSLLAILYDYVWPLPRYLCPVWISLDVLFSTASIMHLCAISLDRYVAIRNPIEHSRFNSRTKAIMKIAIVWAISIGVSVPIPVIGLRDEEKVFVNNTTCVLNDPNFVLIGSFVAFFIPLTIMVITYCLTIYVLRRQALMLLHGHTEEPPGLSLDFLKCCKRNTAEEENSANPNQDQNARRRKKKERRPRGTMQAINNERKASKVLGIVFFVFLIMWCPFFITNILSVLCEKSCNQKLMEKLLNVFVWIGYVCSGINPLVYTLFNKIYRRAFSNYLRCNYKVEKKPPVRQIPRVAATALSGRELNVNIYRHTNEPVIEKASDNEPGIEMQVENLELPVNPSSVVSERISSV

KOR [2] = target: T6, KOR (Homo sapiens, UniProt P41145); experiment: biochemical; format: binding; conditions: for Ki: KOR
mA2AAR = mA2AAR (Mus musculus, UniProt Q60613); experiment: mA2AAR binding; conditions: read-out: mA2AAR binding, % inhibition at 10 μM
rat σ2 receptor = target: T7, rat σ2 receptor (Rattus norvegicus, UniProt Q5U3Y7); experiment: PDSP binding, σ2 receptor
T7 sequence (Q5U3Y7 1-176): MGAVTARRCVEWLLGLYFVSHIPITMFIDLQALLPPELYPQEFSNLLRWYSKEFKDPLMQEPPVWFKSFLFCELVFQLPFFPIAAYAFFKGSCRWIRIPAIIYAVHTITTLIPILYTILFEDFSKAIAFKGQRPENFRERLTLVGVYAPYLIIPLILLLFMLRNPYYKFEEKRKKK

mA1AR = target: T8, mA1AR (Mus musculus, UniProt Q60612); experiment: mA1AR binding; conditions: read-out: mA1AR binding, % inhibition at 10 μM
T8 sequence (Q60612 1-326): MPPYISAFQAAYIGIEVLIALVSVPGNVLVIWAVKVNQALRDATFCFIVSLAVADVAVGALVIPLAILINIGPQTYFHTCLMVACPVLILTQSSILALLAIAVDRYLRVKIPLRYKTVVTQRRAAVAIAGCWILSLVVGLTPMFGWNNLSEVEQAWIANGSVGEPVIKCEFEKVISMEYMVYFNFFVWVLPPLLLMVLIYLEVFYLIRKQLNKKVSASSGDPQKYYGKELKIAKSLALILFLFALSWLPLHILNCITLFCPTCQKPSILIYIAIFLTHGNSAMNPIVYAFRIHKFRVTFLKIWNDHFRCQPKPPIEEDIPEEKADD

MOR [3] = target: T9, MOR (Homo sapiens, UniProt P35372); experiment: biochemical; format: binding; conditions: for MOR, inhibition of radioligand binding at 10 μM (class): Table 2
KOR [4] = target: T6, KOR; experiment: β-arrestin-recruitment TANGO assay at KOR; format: cell-based; conditions: 10 μM; vs naloxone 121 = 100% inhibition; agonist 109 (3 nM)
MOR [5] = target: T9, MOR; experiment: β-arrestin-recruitment TANGO assay at MOR; format: cell-based; conditions: 10 μM
DOR [6] = target: T2, DOR; experiment: β-arrestin-recruitment TANGO assay at DOR; format: cell-based; conditions: 10 μM
hNOP = hNOP (Homo sapiens, UniProt P41146); experiment: Radioligand binding at NOP
KOR [7] = target: T6, KOR; experiment: cell-based; format: cell-based
KOR [8] = target: T6, KOR; format: cell-based; conditions: 1 μM 98
[9] = [3H]U69593, mean ± SEM, N = 2–4

Sequence of rat kidney TSPO (P16257 whole entry): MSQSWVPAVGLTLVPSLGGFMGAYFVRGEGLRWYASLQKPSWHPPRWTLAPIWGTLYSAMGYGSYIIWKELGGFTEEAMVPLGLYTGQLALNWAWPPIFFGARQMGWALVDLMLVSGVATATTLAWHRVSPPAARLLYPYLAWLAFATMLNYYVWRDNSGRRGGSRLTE
Sequence of hA2AAR (P29274 whole entry): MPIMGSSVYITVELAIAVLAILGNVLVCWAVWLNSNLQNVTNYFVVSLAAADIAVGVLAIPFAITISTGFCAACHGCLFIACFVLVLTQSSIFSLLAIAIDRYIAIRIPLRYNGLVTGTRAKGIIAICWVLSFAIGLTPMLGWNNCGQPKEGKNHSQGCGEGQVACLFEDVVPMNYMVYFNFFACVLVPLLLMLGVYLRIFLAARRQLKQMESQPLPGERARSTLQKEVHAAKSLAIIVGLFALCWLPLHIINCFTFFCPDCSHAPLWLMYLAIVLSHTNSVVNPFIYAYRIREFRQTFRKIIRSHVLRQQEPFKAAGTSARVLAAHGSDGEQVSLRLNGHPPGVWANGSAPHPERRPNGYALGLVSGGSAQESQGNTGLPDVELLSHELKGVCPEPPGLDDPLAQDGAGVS
T2 sequence (P41143 whole entry): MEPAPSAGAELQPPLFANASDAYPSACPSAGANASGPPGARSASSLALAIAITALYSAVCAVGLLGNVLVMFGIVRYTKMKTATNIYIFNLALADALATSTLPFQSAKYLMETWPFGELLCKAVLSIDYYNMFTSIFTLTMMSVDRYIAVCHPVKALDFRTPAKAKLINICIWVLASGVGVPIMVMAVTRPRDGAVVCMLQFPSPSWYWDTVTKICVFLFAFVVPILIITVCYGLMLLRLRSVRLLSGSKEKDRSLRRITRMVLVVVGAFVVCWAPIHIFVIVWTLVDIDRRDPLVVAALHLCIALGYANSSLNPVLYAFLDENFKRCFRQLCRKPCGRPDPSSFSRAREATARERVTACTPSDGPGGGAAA
Sequence of mA2AAR (Q60613 whole entry): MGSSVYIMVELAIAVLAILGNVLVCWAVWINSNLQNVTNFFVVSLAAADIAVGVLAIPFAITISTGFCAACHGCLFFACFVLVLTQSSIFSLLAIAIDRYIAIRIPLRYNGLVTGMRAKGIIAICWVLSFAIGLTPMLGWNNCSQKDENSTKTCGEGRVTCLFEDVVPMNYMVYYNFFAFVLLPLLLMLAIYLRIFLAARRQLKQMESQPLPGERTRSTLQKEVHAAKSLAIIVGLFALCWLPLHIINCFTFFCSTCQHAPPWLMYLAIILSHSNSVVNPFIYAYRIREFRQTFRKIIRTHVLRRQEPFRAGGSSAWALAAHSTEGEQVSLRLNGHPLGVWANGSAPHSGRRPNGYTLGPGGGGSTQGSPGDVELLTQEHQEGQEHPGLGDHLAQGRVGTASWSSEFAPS
Sequence of hDAT (Q01959 whole entry): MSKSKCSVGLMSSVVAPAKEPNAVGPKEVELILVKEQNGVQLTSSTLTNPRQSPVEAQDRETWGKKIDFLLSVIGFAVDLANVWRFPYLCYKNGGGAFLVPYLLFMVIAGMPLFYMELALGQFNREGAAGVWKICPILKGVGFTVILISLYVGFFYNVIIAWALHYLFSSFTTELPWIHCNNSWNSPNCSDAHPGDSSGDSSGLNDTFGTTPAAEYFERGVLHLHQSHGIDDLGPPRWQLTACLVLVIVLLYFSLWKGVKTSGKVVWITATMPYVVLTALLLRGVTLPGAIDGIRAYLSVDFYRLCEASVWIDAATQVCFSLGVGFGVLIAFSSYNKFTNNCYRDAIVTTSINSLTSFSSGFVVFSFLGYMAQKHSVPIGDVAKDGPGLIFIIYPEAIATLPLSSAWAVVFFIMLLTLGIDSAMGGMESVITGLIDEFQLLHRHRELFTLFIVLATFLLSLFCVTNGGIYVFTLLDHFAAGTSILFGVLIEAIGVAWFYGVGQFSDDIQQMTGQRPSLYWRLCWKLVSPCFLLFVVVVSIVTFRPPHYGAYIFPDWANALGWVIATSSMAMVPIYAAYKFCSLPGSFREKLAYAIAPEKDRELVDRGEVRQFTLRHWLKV
T9 sequence (P35372 whole entry): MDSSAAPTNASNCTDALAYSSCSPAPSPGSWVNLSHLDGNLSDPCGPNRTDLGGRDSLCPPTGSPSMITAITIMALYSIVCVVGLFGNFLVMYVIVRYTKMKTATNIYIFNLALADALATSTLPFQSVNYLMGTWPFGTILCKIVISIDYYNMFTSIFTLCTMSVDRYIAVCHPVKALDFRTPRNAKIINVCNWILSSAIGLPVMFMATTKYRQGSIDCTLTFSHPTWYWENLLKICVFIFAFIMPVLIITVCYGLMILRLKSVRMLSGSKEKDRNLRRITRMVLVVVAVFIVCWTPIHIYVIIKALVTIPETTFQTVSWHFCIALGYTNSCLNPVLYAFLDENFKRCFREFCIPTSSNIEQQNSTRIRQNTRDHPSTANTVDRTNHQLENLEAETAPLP
T6 sequence (P41145 whole entry): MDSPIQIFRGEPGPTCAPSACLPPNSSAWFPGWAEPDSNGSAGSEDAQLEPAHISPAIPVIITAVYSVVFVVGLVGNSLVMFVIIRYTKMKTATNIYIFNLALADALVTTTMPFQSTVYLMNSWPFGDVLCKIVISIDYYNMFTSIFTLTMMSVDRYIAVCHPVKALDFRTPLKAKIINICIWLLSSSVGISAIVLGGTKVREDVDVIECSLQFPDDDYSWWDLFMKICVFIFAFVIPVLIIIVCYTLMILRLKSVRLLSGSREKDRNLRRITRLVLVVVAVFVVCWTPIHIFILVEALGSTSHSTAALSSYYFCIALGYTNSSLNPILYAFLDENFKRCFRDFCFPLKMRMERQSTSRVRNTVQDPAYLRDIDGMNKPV
Sequence of hNOP (P41146 whole entry): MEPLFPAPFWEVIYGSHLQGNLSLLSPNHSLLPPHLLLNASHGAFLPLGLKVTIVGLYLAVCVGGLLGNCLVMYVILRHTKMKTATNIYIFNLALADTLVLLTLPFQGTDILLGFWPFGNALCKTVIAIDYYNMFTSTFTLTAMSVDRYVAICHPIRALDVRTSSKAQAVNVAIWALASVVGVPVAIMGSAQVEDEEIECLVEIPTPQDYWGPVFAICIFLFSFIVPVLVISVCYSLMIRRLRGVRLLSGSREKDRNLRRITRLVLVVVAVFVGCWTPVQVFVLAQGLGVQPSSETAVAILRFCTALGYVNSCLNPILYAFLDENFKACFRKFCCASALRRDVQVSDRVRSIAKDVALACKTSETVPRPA

SMILES	Ki (mA3AR)	DAT, inhibition, % of control at 10 μM (hDAT)	Ki (hA3AR)	Ki (rat kidney TSPO)	inhibition at 10 µM (mA2AAR)	inhibition at 10 µM (mA1AR)	Ki (KOR [2]; [9])	DOR, inhibition of radioligand binding at 10 μM (class) (DOR [1]; Table 1)	MOR, inhibition of radioligand binding at 10 μM (class) (MOR [3])	DOR, inhibition of radioligand binding at 10 μM (class) (DOR [1]; Table 2)	further results
CNC(=O)[C@@]12C[C@@H]1[C@@H](n1cnc3c(NC)nc(C#Cc4ccccc4Cl)nc31)[C@H](O)[C@@H]2O [compound 13]	110 nM	–484%	–	–	–	–	–	^e (30–50% inhibition of radioligand binding at 10 μM)	–	–	TSPO, inhibition of radioligand binding at 10 μM (class) (rat kidney TSPO; Table 1): ^e (30–50% inhibition of radioligand binding at 10 μM)
CNC(=O)[C@@]12C[C@@H]1[C@@H](n1cnc3c(NCCCO)nc(C#Cc4ccc(Cl)s4)nc31)[C@H](O)[C@@H]2O [compound 20]	105 nM	–107 ± 4%	2.04 ± 1.46 nM	6160 ± 50 nM	–	–	–	^e (30–50% inhibition of radioligand binding at 10 μM)	–	–	–
CNc1nc(C#Cc2ccc(Cl)s2)nc2c1ncn2[C@H]1[C@H](O)[C@H](O)[C@]2(C(=O)NCCN)C[C@H]12 [compound 21]	–	–136%	158 ± 8 nM	> 10000 nM	–	–	–	^f (<30% inhibition of radioligand binding at 10 μM)	–	–	Ki (5HT2C serotonin receptor): 510 nM; Ki (KOR [2]): 2790 nM
CNc1nc(C#Cc2ccc(Cl)s2)nc2c1ncn2[C@H]1[C@H](O)[C@H](O)[C@]2(C(=O)OCc3ccccc3)C[C@H]12 [compound 35]	891 nM	<20%	7.81 ± 2.4 nM	4050 ± 740 nM	–	–	629 ± 183 nM	–	^c (30–50% inhibition of radioligand binding at 10 μM)	^d (<30% inhibition of radioligand binding at 10 μM)	KOR Antag (%) (KOR [4]): 112.9%; MOR Antag (%) (MOR [5]; vs naloxone 121 = 100% inhibition, agonist 99 (300 nM)): 82.1%; MOR Ag (%) (MOR [5]; vs standard agonist = 100%): 3.1%; DOR Antag (%) (DOR [6]; vs naloxone 121 = 100% inhibition): 14.1%; DOR Ag (%) (DOR [6]; vs standard agonist = 100%): –1.9%
CNc1nc(C#Cc2ccc(Cl)s2)nc2c1ncn2[C@@H]1O[C@H](C(=O)OC)[C@@H](O)[C@H]1O [compound 46]	–	–220%	–	–	12%	62%	–	–	–	–	KOR, inhibition of radioligand binding at 10 μM (class) (KOR [2]; Table 3, 10 μM): ^d (30–50% inhibition of radioligand binding at 10 μM)
CNc1nc(C#Cc2ccccc2)nc2c1ccn2[C@H]1[C@H](O)[C@H](O)[C@@H]2C[C@@H]21 [compound 54, (1R,2R,3S,4R,5S)-4-(4-(Methylamino)-2-(phenylethynyl)-7H-pyrrolo[2,3-d]pyrimidin-7-yl)bicyclo[3.1.0]hexane-2,3-diol]	–	−58%	85.6 ± 12 nM	–	–	–	1120 ± 220 nM	–	–	–	inhibition of agonist 98 in cAMP assay (KOR [7]; 100 nM 98): did not inhibit; inhibition at 30 µM (KOR [7]; CHO, read-out: inhibition of cAMP accumulation, % inhibition at 30 μM): 16%; inhibition of agonist 98 in βarrestin2 assay (KOR [8]): did not inhibit; reduction of hA3AR binding affinity by 7-deaza modification (hA3AR; 28 vs 24, 54 vs 49, 55 vs 51): 16 fold; TSPO, inhibition of radioligand binding at 10 μM (class) (rat kidney TSPO; Table 5): ^e (<30% inhibition of radioligand binding at 10 μM); Ki (MOR [3]): 2670 ± 280 nM; DOR, inhibition of radioligand binding at 10 μM (class) (DOR [1]; Table 5): ^d (30–50% inhibition of radioligand binding at 10 μM)

Continued, in another order:

Ki (mA3AR)	DAT, inhibition, % of control at 10 μM (hDAT)	Ki (hA3AR)	Ki (rat kidney TSPO)	inhibition at 10 µM (mA2AAR)	inhibition at 10 µM (mA1AR)	Ki (KOR [2]; [9])	SMILES	DOR, inhibition of radioligand binding at 10 μM (class) (DOR [1]; Table 1)	MOR, inhibition of radioligand binding at 10 μM (class) (MOR [3])	DOR, inhibition of radioligand binding at 10 μM (class) (DOR [1]; Table 2)	further results
71 nM	15%	3.7 ± 1 nM	1300 ± 150 nM	–	–	–	CNC(=O)[C@@]12C[C@@H]1[C@@H](n1cnc3c(NCCC(F)(F)F)nc(C#Cc4ccc(Cl)s4)nc31)[C@H](O)[C@@H]2O [compound 19]	^e (30–50% inhibition of radioligand binding at 10 μM)	–	–	inhibition at 10 µM (hA2AAR): 21%; inhibition at 10 µM (hA1AR): 46%
828 nM	<10%	29.4 ± 13.8 nM	3810 ± 100 nM	5%	54%	806 ± 263 nM	CCOC(=O)[C@@]12C[C@@H]1[C@@H](n1cnc3c(NC)cc(C#Cc4ccc(Cl)s4)nc31)[C@H](O)[C@@H]2O [compound 26]	–	^c (30–50% inhibition of radioligand binding at 10 μM)	^c (30–50% inhibition of radioligand binding at 10 μM)	Ki (rat σ2 receptor): 1760 nM; inhibition at 10 µM (hA2AAR): 16%; inhibition at 10 µM (hA1AR): 39%
–	–426%	–	1160 ± 560 nM	13%	53%	437 ± 167 nM	CCCOC(=O)[C@@]12C[C@@H]1[C@@H](n1cnc3c(NC)nc(C#Cc4ccc(Cl)s4)nc31)[C@H](O)[C@@H]2O [compound 30]	–	^d (<30% inhibition of radioligand binding at 10 μM)	^d (<30% inhibition of radioligand binding at 10 μM)	–
299 nM	37%	–	1640 ± 160 nM	–	–	–	O[C@@H]1[C@H](O)[C@@H]2C[C@@H]2[C@H]1n1cnc2c(NCc3cccc(Cl)c3)nc(C#Cc3ccccc3)nc21 [compound 47]	–	–	–	Ki (rat σ2 receptor): 2730 nM; Ki (hA2AAR): 670 nM; Ki (hNOP): > 10000 nM; Ki (DOR [1]): 8000 ± 1000 nM
